# Species: Rattus norvegicus
# Assay: Open TG-GATES - Regimen: Single
# Type: toxicity, organism-based, Sprague-Dawley
# Design: regimen Single, gender Male, age 6 weeks
# Conditions: in vivo, po, 0 mg/kg, route gavage, dose level Control; for APTT / Bas / Eos / Fbg / Hb / Ht / Lym / MCH / MCHC / MCV / Mono / Neu / PT / Plat / RBC / Ret / WBC: tissue Blood; for KIDNEY_L / KIDNEY_R / KIDNEY_TOTAL: tissue Kidney; for LIVER: tissue Liver; for A/G / ALP / ALT / AST / BUN / CRE / Ca / Cl / DBIL / GLC / IP / K / LDH / Na / PL / RALB / TBIL / TC / TG / TP / gamma-GTP: tissue Plasma
compound,measurement,setting,value
CCN(CC)N=O [N-NITROSODIETHYLAMINE],TERMINAL_BW,3 h,221 g
same,APTT,3 h,19.6 s
same,Bas,3 h,0.4%
same,Eos,3 h,1%
same,Fbg,3 h,223 mg/dL
same,Hb,3 h,13.7 g/dL
same,Ht,3 h,40%
same,Lym,3 h,77.8%
same,MCH,3 h,21.5 pg
same,MCHC,3 h,34.1%
same,MCV,3 h,63 fL
same,Mono,3 h,2.2%
same,Neu,3 h,18%
same,PT,3 h,12 s
same,Plat,3 h,127.6 x10_4/uL
same,RBC,3 h,635.6 x10_4/ul
same,Ret,3 h,7.2%
same,WBC,3 h,66.1 x10_2/uL
same,KIDNEY_L,3 h,1 g
same,KIDNEY_R,3 h,0.9 g
same,KIDNEY_TOTAL,3 h,1.9 g
same,LIVER,3 h,9.5 g
same,A/G,3 h,1.6
same,ALP,3 h,1051 IU/L
same,ALT,3 h,37.4 IU/L
same,AST,3 h,68.4 IU/L
same,BUN,3 h,10 mg/dL
same,CRE,3 h,0.4 mg/dL
same,Ca,3 h,10.3 mg/dL
same,Cl,3 h,102 meq/L
same,DBIL,3 h,0.07 mg/dL
same,GLC,3 h,194.2 mg/dL
same,IP,3 h,9 mg/dL
same,K,3 h,3.5 meq/L
same,LDH,3 h,169.8 IU/L
same,Na,3 h,140.8 meq/L
same,PL,3 h,132.8 mg/dL
same,RALB,3 h,3.4 g/dL
same,TBIL,3 h,0.1 mg/dL
same,TC,3 h,79.4 mg/dL
same,TG,3 h,42.4 mg/dL
same,TP,3 h,5.5 g/dL
same,gamma-GTP,3 h,1 IU/L
same,TERMINAL_BW,6 h,223.5 g
same,APTT,6 h,20.6 s
same,Bas,6 h,0.2%
same,Eos,6 h,1%
same,Fbg,6 h,218 mg/dL
same,Hb,6 h,13.5 g/dL
same,Ht,6 h,39.5%
same,Lym,6 h,79.6%
same,MCH,6 h,21.4 pg
same,MCHC,6 h,34.3%
same,MCV,6 h,62.5 fL
same,Mono,6 h,2.4%
same,Neu,6 h,16%
same,PT,6 h,12 s
same,Plat,6 h,130.4 x10_4/uL
same,RBC,6 h,631.8 x10_4/ul
same,Ret,6 h,6.9%
same,WBC,6 h,81.9 x10_2/uL
same,KIDNEY_L,6 h,1 g
same,KIDNEY_R,6 h,1 g
same,KIDNEY_TOTAL,6 h,2 g
same,LIVER,6 h,9.9 g
same,A/G,6 h,1.6
same,ALP,6 h,946.2 IU/L
same,ALT,6 h,34.2 IU/L
same,AST,6 h,72.4 IU/L
same,BUN,6 h,13.6 mg/dL
same,CRE,6 h,0.4 mg/dL
same,Ca,6 h,10.3 mg/dL
same,Cl,6 h,102.8 meq/L
same,DBIL,6 h,0.076 mg/dL
same,GLC,6 h,201.2 mg/dL
same,IP,6 h,7.8 mg/dL
same,K,6 h,3.6 meq/L
same,LDH,6 h,193 IU/L
same,Na,6 h,140.8 meq/L
same,PL,6 h,141.6 mg/dL
same,RALB,6 h,3.4 g/dL
same,TBIL,6 h,0.1 mg/dL
same,TC,6 h,82.2 mg/dL
same,TG,6 h,54.4 mg/dL
same,TP,6 h,5.5 g/dL
same,gamma-GTP,6 h,1.4 IU/L
same,TERMINAL_BW,9 h,228.4 g
same,APTT,9 h,18.5 s
same,Bas,9 h,0.8%
same,Eos,9 h,1.2%
same,Fbg,9 h,230.8 mg/dL
same,Hb,9 h,13.7 g/dL
same,Ht,9 h,39.7%
same,Lym,9 h,75.4%
same,MCH,9 h,21.6 pg
same,MCHC,9 h,34.5%
same,MCV,9 h,62.5 fL
same,Mono,9 h,2.6%
same,Neu,9 h,19.2%
same,PT,9 h,12 s
same,Plat,9 h,125.1 x10_4/uL
same,RBC,9 h,636 x10_4/ul
same,Ret,9 h,7.1%
same,WBC,9 h,92.6 x10_2/uL
same,KIDNEY_L,9 h,1 g
same,KIDNEY_R,9 h,1 g
same,KIDNEY_TOTAL,9 h,1.9 g
same,LIVER,9 h,10.1 g
same,A/G,9 h,1.6
same,ALP,9 h,875.4 IU/L
same,ALT,9 h,37.8 IU/L
same,AST,9 h,69 IU/L
same,BUN,9 h,13.8 mg/dL
same,CRE,9 h,0.4 mg/dL
same,Ca,9 h,10.4 mg/dL
same,Cl,9 h,103 meq/L
same,DBIL,9 h,0.08 mg/dL
same,GLC,9 h,206.4 mg/dL
same,IP,9 h,8 mg/dL
same,K,9 h,3.8 meq/L
same,LDH,9 h,196.4 IU/L
same,Na,9 h,140.6 meq/L
same,PL,9 h,141.6 mg/dL
same,RALB,9 h,3.4 g/dL
same,TBIL,9 h,0.1 mg/dL
same,TC,9 h,84.2 mg/dL
same,TG,9 h,56.8 mg/dL
same,TP,9 h,5.6 g/dL
same,gamma-GTP,9 h,1.4 IU/L
same,TERMINAL_BW,24 h,229.8 g
same,APTT,24 h,18.9 s
same,Bas,24 h,0%
same,Eos,24 h,1.2%
same,Fbg,24 h,226.2 mg/dL
same,Hb,24 h,13.5 g/dL
same,Ht,24 h,39.6%
same,Lym,24 h,82.6%
same,MCH,24 h,21.5 pg
same,MCHC,24 h,34.1%
same,MCV,24 h,63.2 fL
same,Mono,24 h,1.8%
same,Neu,24 h,13.8%
same,PT,24 h,11.7 s
same,Plat,24 h,128.8 x10_4/uL
same,RBC,24 h,627.2 x10_4/ul
same,Ret,24 h,6.6%
same,WBC,24 h,85.1 x10_2/uL
same,KIDNEY_L,24 h,1.1 g
same,KIDNEY_R,24 h,1 g
same,KIDNEY_TOTAL,24 h,2.1 g
same,LIVER,24 h,10.2 g
same,A/G,24 h,1.6
same,ALP,24 h,1035 IU/L
same,ALT,24 h,37.8 IU/L
same,AST,24 h,63.6 IU/L
same,BUN,24 h,14 mg/dL
same,CRE,24 h,0.4 mg/dL
same,Ca,24 h,10.5 mg/dL
same,Cl,24 h,103.6 meq/L
same,DBIL,24 h,0.07 mg/dL
same,GLC,24 h,208 mg/dL
same,IP,24 h,9.5 mg/dL
same,K,24 h,3.7 meq/L
same,LDH,24 h,190.6 IU/L
same,Na,24 h,141 meq/L
same,PL,24 h,150.6 mg/dL
same,RALB,24 h,3.3 g/dL
same,TBIL,24 h,0.1 mg/dL
same,TC,24 h,86.6 mg/dL
same,TG,24 h,57.8 mg/dL
same,TP,24 h,5.4 g/dL
same,gamma-GTP,24 h,1 IU/L

# Source: ChEMBL document CHEMBL3885861, “Open TG-GATES”
